Columns and labels:
[1] = test system: UV induced peroxidation of lipids; test: inhibition of UV induced peroxidation of lipids (liposomal assay, Pelle et al.); assay type: biochemical
From the text: Caffeine was subjected to bioconversion at concentration as indicated(w/v) in water or in a mixture of structured waters (I/S 60/40).
P. ulei is an equatorial plant known to have anti-inflammatory properties. A. purchyriminor is an equatorial plant containing inhibitors of PAF (Platelet Activating Factor). […] The untreated extracts at a concentration 1% each, are combined and diluted to 0.1% each and subjected to bioconversion.

skin = test: Skin exfoliation via D-Squame discs and image analysis; assay type: in vivo, human; conditions: tested previously in a base, activity over the placebo, 1.0% active in formula
From the text: The subjects included in this study were 120 females between the ages of 21 and 65 years, all meeting the screening criteria of good health and not being pregnant or lactating. The subjects reported for testing without moisturizers or any other products on their hands and baseline measurements were taken. They were randomly assigned to one of the following eight treatment groups. They were given the product to take home and self-administer to their right hand only, twice a day in the morning after washing and in the evening at least 15 minutes before bedtime for four weeks. The left hand served as the untreated control site. The subjects were only allowed to use the test product and specifically log its use in a daily diary provided. At the end of two and four weeks the subjects returned for testing without applying the product for at least 12 hours and they were re-evaluated under the same conditions. Skin Exfoliation via D-Squame Discs Method and Image Analysis Four D-Squame discs were firmly and evenly pressed on the face and the back of each hand with a hand held uniform pressure device and removed by gently pulling away from the skin. The D-Squame discs were mounted on clear microscope slides and labeled according to panelist name and visit. Desquamation was evaluated from the D-Squame discs via the image analyzer. Skin evaluation was carried out before treatment, and after two and four weeks of treatment. The OPTIMA image analyzer was used to evaluate skin flakiness. The D-Squame samples containing the stratum corneocytes are placed under a camera on top of a light table and each image is imported into the image analyzer. The average Gray Value corresponding to the sample density is measured. The denser the sample the higher the Gray value difference. Skin exfoliation was evaluated by measuring the amount of flakes removed from the skin surface using D-Squame discs and analyzing them via the IA method. In this study several ferment combinations of N-Acetyl D-Glucosamine and Mannose 6-Phosphate vs. the placebo, the broth and the ferment as controls, for their effect on skin desquamation. […] Another series of tests were conducted as described above. The concentration of N-acetyl D-glucosamine and mannose 6-phosphate was reduced by 10 fold without compromising their activity. Table 4 below summarizes the actual active concentrations used with a brief description along with their activity.

Cn1c(=O)c2c(ncn2C)n(C)c1=O [Caffeine Non bioconverted I/S water, Caffeine] was tested, and the “Inhibition of lipid peroxidation” value ([1]; Caffeine Concentration 0.05%) was 24%, the “Inhibition of lipid peroxidation” value ([1]; Caffeine Concentration 0.25%) was 58% and the “Inhibition of lipid peroxidation” value ([1]; Caffeine Concentration 0.5%) was 66%.

O=C[C@@H](O)[C@@H](O)[C@H](O)[C@H](O)COP(=O)(O)O [1% Mannose 6-Phosphate, Mannose 6-Phosphate] was tested, and the “Decrease in Flakiness 2 wk” value (skin) was 22% and the “Decrease in Flakiness 4 wk” value (skin) was 29%.

In the case of Oc1ccc(C=Cc2cc(O)cc(O)c2)cc1 [Resveratrol Nonbioconverted, Resveratrol], the Anti-oxidant activity ([1]; Concentration of Resveratrol in S water 0.05%) is reported as 1.8%, the Anti-oxidant activity ([1]; Concentration of Resveratrol in S water 0.25%) is reported as 8% and the Anti-oxidant activity ([1]; Concentration of Resveratrol in S water 0.5%) is reported as 39%.

Cn1c(=O)c2c(ncn2C)n(C)c1=O [Caffeine Non bioconverted H2O, Caffeine] was tested, and the “Inhibition of lipid peroxidation” value ([1]; Caffeine Concentration 0.05%) was 30%, the “Inhibition of lipid peroxidation” value ([1]; Caffeine Concentration 0.25%) was 54% and the “Inhibition of lipid peroxidation” value ([1]; Caffeine Concentration 0.5%) was 66%.

CC(=O)N[C@H]1C(O)O[C@H](CO)[C@@H](O)[C@@H]1O (stereo partly shown) [1% N-Acetyl Glucosamine, N-Acetyl Glucosamine] was tested, and the “Decrease in Flakiness 2 wk” value (skin) was 16% and the “Decrease in Flakiness 4 wk” value (skin) was 27%.
